# Molecular target: T1, Trx-6×His-BCL6 (human BCL6 BTB domain covering amino-acid sequence 5-129) (Homo sapiens, UniProt P41182)
# T1 construct: made in house
# Experiment: HTRF assay (BCL6 / BCOR peptide)
# Assay type: binding
# Details: 1 nM Trx-6×His-BCL6, 300 nM BCOR-AF633 peptide, 2 hours incubation at room temperature
# Method: After 2 hours incubation at room temperature the plate was read on a Pherastar FSX (BMG Labtech) plate reader equipped with 337 nm laser excitation filter, a first emission filter at 620 nm and a second emission filter at 665 nm. The % inhibition at each concentration was calculated by normalising FRET ratio to the appropriate high (DMSO with all reagents) and low (DMSO without BCL6) controls.
row,SMILES,HTRF avg pIC50
1,"C[C@@H]1C[C@H](N(C)C)CN(c2ncc(Cl)c(Nc3ccc4c(c3)c3c(c(=O)n4C)OCC(F)(F)[C@H](C4CC4)N3)n2)C1 [Example 1h, (S)-10-((5-chloro-2-((3S,5R)-3-(dimethylamino)-5-methylpiperidin-1-yl)pyrimidin-4-yl)amino)-2-cyclopropyl-3,3-difluoro-7-methyl-1,2,3,4-tetrahydro-[1,4]oxazepino[2,3-c]quinolin-6(7H)-one]",8.44
2,"Cn1c(=O)c2c(c3cc(Nc4nc(N5CCC[C@H](O)C5)ncc4Cl)ccc31)N[C@@H](C1CC1)C(F)(F)CO2 [Example 1i, (S)-10-((5-chloro-2-((S)-3-hydroxypiperidin-1-yl)pyrimidin-4-yl)amino)-2-cyclopropyl-3,3-difluoro-7-methyl-1,2,3,4-tetrahydro-[1,4]oxazepino[2,3-c]quinolin-6(7H)-one]",8.51

# Same assay, conditions: 1 nM Trx-6×His-BCL6, 300 nM BCOR-AF633 peptide, 2 hours incubation at room temperature; read-out: HTRF avg pIC50 (converted)
row,IC50,SMILES
1,38 nM,"C[C@H]1CCCN(c2ncc(Cl)c(Nc3ccc4c(c3)c3c(c(=O)n4C)OCC(F)(F)[C@H](C4CC4)N3)n2)C1 [Example 1k, (S)-10-((5-chloro-2-((S)-3-methylpiperidin-1-yl)pyrimidin-4-yl)amino)-2-cyclopropyl-3,3-difluoro-7-methyl-1,2,3,4-tetrahydro-[1,4]oxazepino[2,3-c]quinolin-6(7H)-one]"
2,25.7 nM,"C[C@@H]1CCCN(c2ncc(Cl)c(Nc3ccc4c(c3)c3c(c(=O)n4C)OCC(F)(F)[C@H](C4CC4)N3)n2)C1 [Example 1l, (S)-10-((5-chloro-2-((R)-3-methylpiperidin-1-yl)pyrimidin-4-yl)amino)-2-cyclopropyl-3,3-difluoro-7-methyl-1,2,3,4-tetrahydro-[1,4]oxazepino[2,3-c]quinolin-6(7H)-one]"
3,9.33 nM,"Cn1c(=O)c2c(c3cc(Nc4nc(N5CC(C)(F)C5)ncc4Cl)ccc31)N[C@@H](C1CC1)C(F)(F)CO2 [Example 1m, (S)-10-((5-chloro-2-(3-fluoro-3-methylazetidin-1-yl)pyrimidin-4-yl)amino)-2-cyclopropyl-3,3-difluoro-7-methyl-1,2,3,4-tetrahydro-[1,4]oxazepino[2,3-c]quinolin-6(7H)-one]"
4,13.8 nM,"Cn1c(=O)c2c(c3cc(Nc4nc(N5CC(C)(O)C5)ncc4Cl)ccc31)N[C@@H](C1CC1)C(F)(F)CO2 [Example 1n, (S)-10-((5-chloro-2-(3-hydroxy-3-methylazetidin-1-yl)pyrimidin-4-yl)amino)-2-cyclopropyl-3,3-difluoro-7-methyl-1,2,3,4-tetrahydro-[1,4]oxazepino[2,3-c]quinolin-6(7H)-one]"
5,2.4 nM,"C[C@H]1C[C@@H](O)CN(c2ncc(F)c(Nc3ccc4c(c3)c3c(c(=O)n4C)OCC(F)(F)[C@H](C4CC4)N3)n2)C1 [Example 2a, (S)-2-cyclopropyl-3,3-difluoro-10-((5-fluoro-2-((3R,5S)-3-hydroxy-5-methylpiperidin-1-yl)pyrimidin-4-yl)amino)-7-methyl-1,2,3,4-tetrahydro-[1,4]oxazepino[2,3-c]quinolin-6(7H)-one]"

row,SMILES,IC50
1,"CC(=O)N[C@@H]1C[C@H](C)CN(c2ncc(Cl)c(Nc3ccc4c(c3)c3c(c(=O)n4C)OCC(F)(F)[C@H](C4CC4)N3)n2)C1 [Example 1g, N-((3R,5S)-1-(5-chloro-4-(((S)-2-cyclopropyl-3,3-difluoro-7-methyl-6-oxo-1,2,3,4,6,7-hexahydro-[1,4]oxazepino[2,3-c]quinolin-10-yl)amino)pyrimidin-2-yl)-5-methylpiperidin-3-yl)acetamide]",3.16 nM
2,"Cn1c(=O)c2c(c3cc(Nc4nc(N5CCC[C@@H](O)C5)ncc4Cl)ccc31)N[C@@H](C1CC1)C(F)(F)CO2 [Example 1j, (S)-10-((5-chloro-2-((R)-3-hydroxypiperidin-1-yl)pyrimidin-4-yl)amino)-2-cyclopropyl-3,3-difluoro-7-methyl-1,2,3,4-tetrahydro-[1,4]oxazepino[2,3-c]quinolin-6(7H)-one]",2.95 nM

# — US12528826B2, “[1,4]oxazepino[2,3-c]quinolinone derivatives as BCL6 inhibitors” (Cancer Research Technology Limited, priority 2019, dated 2026)
